Data: patent publication US20140018371A1, “Modulators Of The GPR119 Receptor And The Treatment Of Disorders Related Thereto” (ARENA PHARMACEUTICALS, INC., priority 2011, published 2014)

Legend:
hGPR119 = biological target: T1, hGPR119 (Homo sapiens, UniProt Q8TDV5); experiment: HTRF cAMP assay in CHO-K1 cells stably expressing the GPR119 receptor; type: cell-based
T1 construct: expressed in transfected cells
T1 sequence (Q8TDV5 2-335 limits assumed): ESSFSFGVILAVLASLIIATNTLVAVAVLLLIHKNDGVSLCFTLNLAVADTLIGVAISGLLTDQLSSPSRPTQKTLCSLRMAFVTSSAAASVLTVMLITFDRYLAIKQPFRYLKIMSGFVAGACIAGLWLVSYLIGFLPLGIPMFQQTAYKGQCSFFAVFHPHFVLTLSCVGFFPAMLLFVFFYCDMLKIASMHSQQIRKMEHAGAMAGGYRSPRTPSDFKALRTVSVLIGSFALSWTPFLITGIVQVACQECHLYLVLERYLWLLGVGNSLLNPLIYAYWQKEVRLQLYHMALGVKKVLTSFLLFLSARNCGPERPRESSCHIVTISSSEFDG
Protocol: GPR119 agonists were evaluated in an HTRF® cAMP detection assay according to the manufacturer's instructions (Cisbio, cAMP Dynamic 2 Assay Kit; #62AM4PEJ) using CHO-K1 cells stably expressing the GPR119 receptor. Briefly, CHO-K1 cells were transduced with a lentiviral vector encoding the nucleotide sequence of GPR119 (NCBI mRNA and protein reference sequences: NM_178471.2 & NP_848566, (GPR119 has also been referred to as Glucose-Dependent Insulinotropic Receptor (GDIR)). The N-terminus of the GPR119 nucleotide sequence was modified to replace the first, methionine-coding codon with a nucleotide sequence coding for a standard, nine amino acid, hemagglutinin tag. Following transduction, cells expressing the GPR119 receptor were isolated and a single clone was isolated following standard dilution-cloning procedures. On the day of the assay, cultured CHO-GPR119 cells were harvested, suspended in assay buffer and plated into 384-well assay plates (PerkinElmer Proxiplate #6008280) at a density of 2,000 cells per well. A cAMP standard curve was added to each plate. Test compounds were solubilized in DMSO, serially diluted in DMSO and then diluted in assay buffer before adding to the cells. Test compounds were evaluated in triplicate, using 10-point, 5-fold serial dilutions starting at 10 μM. The final DMSO concentration in the assay was 0.5%. Compounds and cells were incubated for 1 h at room temperature and then detection reagents were added to each well (cAMP-D2 in cell lysis buffer, followed by europium cryptate-labeled anti-cAMP antibody). Plates were then incubated at room temperature for 1 h prior to reading. Time-resolved fluorescence measurements were collected on PerkinElmer Envision™ or BMG Pherastar™ microplate readers. The compound N-(2-fluoro-4-(methylsulfonyl)phenyl)-6-(4-(3-isopropyl-1,2,4-oxadiazol-5-yl)piperidin-1-yl)-5-nitropyrimidin-4-amine was used as a positive control in each runset while assay buffer containing 0.5% DMSO was used as the negative control. The HTRF® assay was used to determine EC50 values for GPR119 agonists.

Male 129SVE mice [1] = experiment: Oral glucose tolerance test (oGTT) in male 129SVE mice; type: in vivo; settings: for plasma glucose level, Mean: oGTT, in mg/dL (unit assumed)
Protocol: Male 129SVE mice (approximately 8-week old) were fasted for 18 h and randomly grouped (n=6) to receive a GPR119 agonist (Compound 8) at 3, or 30 mg/kg (mg/kg body weight). The compound was delivered orally via a gavage needle (p.o., volume at 4 mL/kg) 30 minutes prior to glucose bolus (3 g/kg) (time=−30 min in FIG. 1), with a separate group receiving vehicle (20% hydroxypropyl-beta-cyclodextrin) as control. At time 0 min the glucose bolus was administered. Levels of blood glucose were assessed using a glucometer (One-Touch Ultra™, LifeScan) at time −30 minute (prior to compound administration), at 0 min (at time when glucose bolus was given), and at 20, 40, 60, 120 minutes post glucose bolus. The plasma glucose level (Table 1) and glucose excursion curve (FIG. 1) are shown. Glucose excursion AUC (area under the curve) reduction in compound treated animals relative to vehicle control is given in FIG. 2.

Male 129SVE mice [2] = experiment: In vivo incretin hormone GIP release (plasma total GIP, ELISA); settings: 3 or 30 mpk p.o., blood sample after 45 min
Protocol: Male 129SVE mice (approximately 8-week old) were fasted for 18 h and randomly grouped (n=6) to receive a GPR119 agonist (Compound 8) at 3 or 30 mpk dose (mg/kg body weight). Compound 8 were delivered orally via a gavage needle (p.o., volume at 4 mL/kg), and after 45 min a blood sample was collected to determine plasma total GIP levels. A separate group received vehicle (PET: 80% PEG:10% Ethanol:10% Tween80™) as control. Plasma GIP levels were determined using a Total GIP ELISA kit from Millipore.

SMILES	EC50 (hGPR119) [nM]	also measured
CS(=O)(=O)c1ccc([C@H]2CC[C@H](OCC3CCN(c4ncc(C(F)(F)F)cn4)CC3)CC2)nc1 [Compound 18]	134	
CC(C)(C)OC(=O)N1CCC(CO[C@H]2CC[C@H](c3ccncc3C#N)CC2)CC1 [Compound 49, tert-Butyl 4-(((1r,4r)-4-(3-Cyanopyridin-4-yl)cyclohexyloxy)methyl)piperidine-1-carboxylate]	1030	
CC(C)(C)OC(=O)N1CCC(CO[C@H]2CC[C@H](c3ccncc3F)CC2)CC1 [Compound 56, tert-Butyl 4-(((1r,4r)-4-(3-Fluoropyridin-4-yl)cyclohexyloxy)methyl)piperidine-1-carboxylate]	63	
CC(C)(C)OC(=O)N1CCC(CO[C@H]2CC[C@@H](c3cnc(S(C)(=O)=O)cn3)CC2)CC1 [Compound 12, tert-Butyl 4-((-4-(5-(Methylsulfonyl)pyrazin-2-yl)cyclohexyloxy)methyl)piperidine-1-carboxylate]	707	
CC(C)(C)OC(=O)N1CCC(COC2CC=C(c3ccncc3C#N)CC2)CC1 (stereo not shown) [Compound 50, tert-Butyl 4-((4-(3-Cyanopyridin-4-yl)cyclohex-3-enyloxy)methyl)piperidine-1-carboxylate]	38	
CC(C)OC(=O)N1CCC(CO[C@H]2CC[C@H](c3ccc(S(C)(=O)=O)cc3)CC2)CC1 [Compound 38, Isopropyl 4-((4-(4-(Methylsulfonyl)phenyl)cyclohexyloxy)methyl)piperidine-1-carboxylate]	57	
CSc1ccc([C@H]2CC[C@H](OCC3CCN(C(=O)OC(C)(C)C)CC3)CC2)cc1 [Compound 41, tert-Butyl 4-((4-(4-(Methylthio)phenyl)cyclohexyloxy)methyl)piperidine-1-carboxylate]	505	
CC(C)OC(=O)N1CCC(CO[C@H]2CC[C@H](c3ccc(S(C)(=O)=O)cc3F)CC2)CC1 [Compound 11, Isopropyl 4-(((1r,4r)-4-(2-Fluoro-4-(methylsulfonyl)phenyl)cyclohexyloxy)methyl)piperidine-1-carboxylate]	21	
CC(C)(F)c1noc(N2CCC(CO[C@H]3CC[C@H](c4ccc(S(C)(=O)=O)cc4F)CC3)CC2)n1 [Compound 16, 5-(4-(((1r,4r)-4-(2-Fluoro-4-(methylsulfonyl)phenyl)cyclohexyloxy)methyl)piperidin-1-yl)-3-(2-fluoropropan-2-yl)-1,2,4-oxadiazole]	38	
CCc1cnc(N2CCC(CO[C@H]3CC[C@H](c4ccc(S(C)(=O)=O)cc4F)CC3)CC2)nc1 [Compound 8, 5-Ethyl-2-(4-(((1r,4r)-4-(2-fluoro-4-(methylsulfonyl)phenyl)cyclohexyloxy)methyl)piperidin-1-yl)pyrimidine]		effect on blood glucose after glucose challenge (Male 129SVE mice [1]; 129SVE mice, 3 or 30 mg/kg p.o., 30 min prior to glucose bolus (3 g/kg)): lowered blood glucose; plasma glucose level, Mean (Male 129SVE mice [1]; 3 mpk p.o., 20 min post glucose bolus): 201.3; plasma glucose level, Mean (Male 129SVE mice [1]; 3 mpk p.o., 40 min post glucose bolus): 250.2; plasma glucose level, Mean (Male 129SVE mice [1]; 3 mpk p.o., 60 min post glucose bolus): 262.8; plasma glucose level, Mean (Male 129SVE mice [1]; 3 mpk p.o., 120 min post glucose bolus): 163.3; plasma glucose level, Mean (Male 129SVE mice [1]; 3 mpk p.o., time 0 min relative to glucose bolus): 112.5; plasma glucose level, Mean (Male 129SVE mice [1]; 3 mpk p.o., time −30 min relative to glucose bolus (prior to compound administration)): 88.7; plasma glucose level, Mean (Male 129SVE mice [1]; 30 mpk p.o., 20 min post glucose bolus): 163.5; plasma glucose level, Mean (Male 129SVE mice [1]; 30 mpk p.o., 40 min post glucose bolus): 204.2; plasma glucose level, Mean (Male 129SVE mice [1]; 30 mpk p.o., 60 min post glucose bolus): 193.2; plasma glucose level, Mean (Male 129SVE mice [1]; 30 mpk p.o., 120 min post glucose bolus): 107.5; plasma glucose level, Mean (Male 129SVE mice [1]; 30 mpk p.o., time 0 min relative to glucose bolus): 96.0; plasma glucose level, Mean (Male 129SVE mice [1]; 30 mpk p.o., time −30 min relative to glucose bolus (prior to compound administration)): 72.2; effect on plasma total GIP release (Male 129SVE mice [2]): stimulates the release of GIP
CC(C)(C)OC(=O)N1CCC(CO[C@H]2CC[C@H](c3ccc(S(C)(=O)=O)cc3F)CC2)CC1 [Compound 42, tert-Butyl 4-((4-(2-Fluoro-4-(methylsulfonyl)phenyl)cyclohexyloxy)methyl)piperidine-1-carboxylate]	6.4	
CC(C)(C)OC(=O)N1CCC(CO[C@H]2CC[C@H](c3ccc(S(C)(=O)=O)cc3)CC2)CC1 [Compound 1, tert-Butyl 4-((4-(4-(Methylsulfonyl)phenyl)cyclohexyloxy)methyl)piperidine-1-carboxylate]	16	
CS(=O)(=O)c1ccc([C@H]2CC[C@H](OCC3CCN(Cc4nc(C(F)(F)F)no4)CC3)CC2)c(F)c1 [Compound 60, 5-((4-(((1r,4r)-4-(2-Fluoro-4-(methylsulfonyl)phenyl)cyclohexyloxy)methyl)piperidin-1-yl)methyl)-3-(trifluoromethyl)-1,2,4-oxadiazole]	200	
CC(C)c1noc(N2CCC(COC3CC=C(c4ccc(S(C)(=O)=O)cc4)CC3)CC2)n1 (stereo not shown) [Compound 23, 3-Isopropyl-5-(4-((4-(4-(Methylsulfonyl)phenyl)cyclohex-3-enyloxy)methyl)piperidin-1-yl)-1,2,4-oxadiazole]	15	
Cc1nc(S(C)(=O)=O)ccc1[C@H]1CC[C@H](OCC2CCN(c3ncc(C(F)(F)F)cn3)CC2)CC1 [Compound 31, 2-(4-(((1r,4r)-4-(2-Methyl-6-(methylsulfonyl)pyridin-3-yl)cyclohexyloxy)methyl)piperidin-1-yl)-5-(trifluoromethyl)pyrimidine]	42	
